Target: T1, KRAS G12D 1-169 (His-tagged, GDP-loaded) (Homo sapiens, UniProt P01116, G12D)
T1 construct: His -tagged GDP-loaded G12D 1-169; made in house; host or cells: E. coli, e.g. BL21 (DE3)
Test: Covalent modification of KRAS protein by intact-protein LC-MS
Type: binding
Conditions: comparable or same conditions as K-Ras G12S
Procedure: Test compounds are prepared as 10 mM stock solutions in DMSO (Fisher cat #BP231-100). KRAS protein (His -tagged GDP-loaded wildtype 1-169, His -tagged GDP-loaded G12S 1-169 or His -tagged GDP-loaded G12D 1-169) is diluted to ˜2 μM in appropriate buffer (e.g., a Hepes buffer at physiological conditions). For testing KRAS modification, compounds are diluted to 50× final test concentration in DMSO in 96-well storage plates. 2 μl of the diluted 50× compounds are added to appropriate wells in the PCR plate (Fisher cat #AB-0800). ˜49 μl of the stock protein solution is added to each well of the 96-well PCR plate. Reactions are mixed carefully. The plate is sealed well with aluminum plate seal, and stored in drawer at room temperature for 24 hrs. 5 μl of 2% formic acid (Fisher cat #A117-50) in MilliQ H2O is then added to each well followed by mixing with a pipette. The plate is then resealed with aluminum seal and stored until mass spectrometry analysis.
The extent of covalent modification of KRAS proteins was determined by liquid chromatography electrospray mass spectrometry analysis of the intact proteins on a Thermo Q-Exactive Plus mass spectrometer. 20 μl of sample was injected onto a bioZen 3.6 μm Intact C4 column (Phenomenex cat #00B-4767-AN) placed in a column oven set to 40° C. and separated using a suitable LC gradient from ˜20% to ˜60% solvent B. Solvent A was 0.1% formic acid and solvent B was 0.1% formic acid in acetonitrile. HESI source settings were set to 40, 5 and 1 for the sheath, auxiliary and sweep gas flow, respectively. The spray voltage was 4 kV, and the capillary temperature was 320° C. S-lens RF level was 50 and auxiliary gas heater temperature was set to 200° C. The mass spectrometry was acquired using a scan range from 650 to 1750 m/z using positive polarity at a mass resolution of 70,000, AGC target of 1e6 ions and maximum injection time of 250 ms. The recorded protein mass spectrum was deconvoluted from the raw data file using Protein Deconvolution v4.0 (Thermo). The protein mass and adduct masses were exported with their peak intensities. The peak intensities for the unmodified and modified protein were used to calculate the percent covalent modification of the KRAS protein based on the following equation: % KRAS protein modification=((KRAS−compound)/(KRAS)+(KRAS−Compound))*100.

T1 sequence (P01116 1-169 isoform P01116-2 G12D): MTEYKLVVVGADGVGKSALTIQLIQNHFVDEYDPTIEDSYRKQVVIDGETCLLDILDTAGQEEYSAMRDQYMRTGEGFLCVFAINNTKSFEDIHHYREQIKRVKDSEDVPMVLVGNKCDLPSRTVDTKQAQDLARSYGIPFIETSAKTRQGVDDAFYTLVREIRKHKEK

SMILES | covalent labeling of K-Ras G12D
N#Cc1c(N)sc2c(F)ccc(-c3c(Cl)cc4c(N5CCCC6(CCN(C(=O)n7cncn7)C6)C5)nc(OC[C@@]56CCCN5C[C@H](F)C6)nc4c3F)c12 (stereo partly drawn) [Compound A269, 4-(4-(2-(1H-1,2,4-triazole-1-carbonyl)-2,7-diazaspiro[4.5]-decan-7-yl)-6-chloro-8-fluoro-2-(((2R,7aS)-2-fluorotetrahydro-1H-pyrrolizin-7a(5H)-yl)meth-oxy)quinazolin-7-yl)-2-amino-7-fluorobenzo[b]thiophene-3-carbonitrile] | essentially no detectable labeling
C[C@H](Oc1nc(N2CCOC3(CN(C(=O)n4cncn4)C3)C2)c2cc(Cl)c(-c3ccc(F)c4sc(N)c(C#N)c34)c(F)c2n1)[C@@H]1CCCN1C [Compound A275, 4-(4-(2-(1H-1,2,4-triazole-1-carbonyl)-5-oxa-2,8-diazaspiro-[3.5]nonan-8-yl)-6-chloro-8-fluoro-2-((S)-1-((S)-1-methyl-pyrrolidin-2-yl)ethoxy)quin-azolin-7-yl)-2-amino-7-fluoro-benzo[b]thiophene-3-carbonitrile] | essentially no detectable labeling
Nc1nc2c(-c3c(Cl)cc4c(N5CC6(CCN(C(=O)n7cncn7)C6)C5)nc(OC[C@@]56CCCN5C[C@H](F)C6)nc4c3F)ccc(F)c2s1 [Compound A279, (2-(7-(2-amino-7-fluorobenzo-[d]thiazol-4-yl)-6-chloro-8-fluoro-2-(((2R,7aS)-2-fluoro-tetrahydro-1H-pyrrolizin-7a(5H)-yl)methoxy)quinazolin-4-yl)-2,6-diazaspiro[3.4]octan-6-yl)(1H-1,2,4-triazol-1-yl)-methanone] | essentially no detectable labeling
Cc1nc(C)n(C(=O)N2CC3(C2)CN(c2nc(OC[C@@]45CCCN4C[C@H](F)C5)nc4c(F)c(-c5ccc(F)c6sc(N)c(C#N)c56)c(Cl)cc24)CCO3)n1 [Compound A283, 2-amino-4-(6-chloro-4-(2-(3,5-dimethyl-1H-1,2,4-triazole-1-carbonyl)-5-oxa-2,8-diazaspiro-[3.5]nonan-8-yl)-8-fluoro-2-(((2R,7aS)-2-fluorotetrahydro-1H-pyrrolizin-7a(5H)-yl)meth-oxy)quinazolin-7-yl)-7-fluoro-benzo[b]thiophene-3-carbonitrile] | essentially no detectable labeling
N#Cc1c(N)sc2c(F)ccc(-c3c(Cl)cc4c(N5CC6(CCCCN(C(=O)n7cncn7)C6)C5)nc(OC[C@@]56CCCN5C[C@H](F)C6)nc4c3F)c12 [Compound A285, 4-(4-(6-(1H-1,2,4-triazole-1-carbonyl)-2,6-diazaspiro[3.6]-decan-2-yl)-6-chloro-8-fluoro-2-(((2R,7aS)-2-fluorotetra-hydro-1H-pyrrolizin-7a(5H)-yl)methoxy)quinazolin-7-yl)-2-amino-7-fluorobenzo[b]thio-phene-3-carbonitrile] | essentially no detectable labeling
C#Cc1c(F)ccc2cc(O)cc(-c3ncc4c(N5CCOCC6(CN(C(=O)n7cnc(C)n7)C6)C5)nc(OC[C@@]56CCCN5C[C@H](F)C6)nc4c3F)c12 [Compound A298, (9-(7-(8-ethynyl-7-fluoro-3-hydroxynaphthalen-1-yl)-8-fluoro-2-(((2R,7aS)-2-fluoro-tetrahydro-1H-pyrrolizin-7a(5H)-yl)methoxy)pyrido[4,3-d]pyrimidin-4-yl)-6-oxa-2,9-diazaspiro[3.6]decan-2-yl)(3-methyl-1H-1,2,4-triazol-1-yl)-methanone] | essentially no detectable labeling
Cc1ncn(C(=O)N2CCCC(Oc3nc(OC[C@@]45CCCN4C[C@H](F)C5)nc4c(F)c(-c5ccc(F)c6sc(N)c(C#N)c56)c(Cl)cc34)C2)n1 (stereo partly drawn) [Compound A302, 2-amino-4-(6-chloro-8-fluoro-2-(((2R,7aS)-2-fluorotetrahydro-1H-pyrrolizin-7a(5H)-yl)meth-oxy)-4-((1-(3-methyl-1H-1,2,4-triazole-1-carbonyl)piperidin-3-yl)oxy)quinazolin-7-yl)-7-fluorobenzo[b]thiophene-3-carbonitrile] | essentially no detectable labeling
Cc1ncn(C(=O)N2CC3CCN(c4nc(OC[C@@]56CCCN5C[C@H](F)C6)nc5c(F)c(-c6ccc(F)c7sc(N)c(C#N)c67)c(Cl)cc45)C3C2)n1 (stereo partly drawn) [Compound A304, 2-amino-4-(6-chloro-8-fluoro-2-(((2R,7aS)-2-fluorotetrahydro-1H-pyrrolizin-7a(5H)-yl)meth-oxy)-4-(5-(3-methyl-1H-1,2,4-triazole-1-carbonyl)hexahydro-pyrrolo[3,4-b]pyrrol-1(2H)-yl)quinazolin-7-yl)-7-fluoro-benzo[b]thiophene-3-carbonitrile] | essentially no detectable labeling

Tested on: not listed separately
Test: Metabolic (microsomal) stability assay
Conditions: pooled liver microsomes, pH 7.4
Procedure: The metabolic stability of a test compound is assayed at 37° C. using pooled liver microsomes (mouse or human liver microsomes). An aliquot of 10 μL of 50 μM test compound is mixed with 490 μL of 0.611 mg/mL liver microsomes, then 50 μL of the mixtures are dispensed to the 96 well tubes and warmed at 37° C. for 10 minutes. The reactions are initiated by adding 50 μL of the pre-warmed NADPH regeneration system solution (add 1.2 μL solution, 240 μl solution B, mix with 10.56 ml KPBS) and then incubated at 37° C. The final incubation solution contains 100 mM potassium phosphate (pH 7.4), 1.3 mM NADP+, 3.3 mM glucose 6-phosphate, 0.4 Unit/mL of glucose 6-phosphate dehydrogenase, 3.3 mM magnesium chloride, 0.3 mg/mL liver microsomes and 0.5 μM test article. After 0, 15, 30 and 60 minutes in a shaking incubator, the reactions are terminated by adding 100 μL of acetonitrile containing 200 nM buspirone as an internal standard. All incubations are conducted in duplicate. […] Samples are then centrifuged at 3500 rpm for 10 minutes (4° C.) using Sorvall Legend XRT Centrifuge (Thermo Scientific, GE). Supernatants (40 μL) are transferred into clean 96-deep well plates. Each well is added with 160 μL of ultrapure water (Milli-Q, Millipore Corporation) with 0.1% (v/v) formic acid (Fisher Chemical), mixed thoroughly and subjected to LC/MS/MS analysis in MRM positive ionization mode.
All the samples are measured using a mass spectrometer (QTrap 5500 quadrupole/ion trap) coupled with a Shimadzu HPLC system. The HPLC system consisted of a Shimadzu series degasser, binary quaternary gradient pumps, column heater coupled to an autosampler, and a Phenomenex Gemini-NX, C18, 3.0 μm or Phenomenex Lunar, C8, 5.0 μM HPLC column (Phenomenex, Torrance, CA), and eluted with a mobile phase gradient consisting of Solution A (0.1% formic acid water) and Solution B (0.1% formic acid acetonitrile). The column temperature is maintained at 40° C. All the analytes are detected with positive-mode electrospray ionization (ES+).
The half-life for the metabolic degradation of the test compound is calculated by plotting the time-course disappearance of the test compound during the incubation with liver microsomes. Each plot is fitted to a first-order equation for the elimination of the test compound (% remaining compound) versus time using non-linear regression (Equation 1).
where Ct is the mean relative substrate concentration at time t and C0 is the initial concentration (0.5 μM) at time 0. Note that the area ratio of the substrate peak to an internal standard peak is proportional to the analyte concentration and is used for regression analysis to derive a value of k.

SMILES | half-life at 0.5 μM [min]
N#Cc1c(N)sc2c(F)ccc(-c3c(Cl)cc4c(N5CCC6CN(C(=O)Nc7ncccn7)CCC65)nc(OC[C@@]56CCCN5C[C@H](F)C6)nc4c3F)c12 (single isomer, unassigned) [Compound A271] | > 10
C#Cc1c(F)ccc2cc(O)cc(-c3ncc4c(N5CCOC6(CN(C(=O)n7cncn7)C6)C5)nc(OC[C@@]56CCCN5C[C@H](F)C6)nc4c3F)c12 [Compound A106, (8-(7-(8-ethynyl-7-fluoro-3-hydroxynaphthalen-1-yl)-8-fluoro-2-(((2R,7aS)-2-fluoro-tetrahydro-1H-pyrrolizin-7a(5H)-yl)methoxy)pyrido-[4,3-d]pyrimidin-4-yl)-5-oxa-2,8-diazaspiro[3.5]nonan-2-yl)(1H-1,2,4-triazol-1-yl)-methanone] | > 10
N#Cc1c(N)sc2c(F)ccc(-c3c(Cl)cc4c(N5CCCC6(CN(C(=O)n7cncn7)C6)C5)nc(OC[C@@]56CCCN5C[C@H](F)C6)nc4c3F)c12 [Compound A129, 4-(4-(2-(1H-1,2,4-triazole-1-carbonyl)-2,6-diazaspiro[3.5]-nonan-6-yl)-6-chloro-8-fluoro-2-(((2R,7aS)-2-fluorotetrahydro-1H-pyrrolizin-7a(5H)-yl)meth-oxy)quinazolin-7-yl)-2-amino-7-fluorobenzo[b]thiophene-3-carbonitrile] | > 10
N#Cc1c(N)sc2c(F)ccc(-c3c(Cl)cc4c(N5CCOC6(CN(C(=O)n7cncn7)C6)C5)nc(OC[C@@]56CCCN5C[C@H](F)C6)nc4c3F)c12 [Compound A132, 4-(4-(2-(1H-1,2,4-triazole-1-carbonyl)-5-oxa-2,8-diaza-spiro[3.5]nonan-8-yl)-6-chloro-8-fluoro-2-(((2R,7aS)-2-fluorotetrahydro-1H-pyrrolizin-7a(5H)-yl)methoxy)quinazolin-7-yl)-2-amino-7-fluorobenzo-[b]thiophene-3-carbonitrile] | > 10
Nc1nc2c(-c3c(Cl)cc4c(N5CCCC6(CN(C(=O)n7cncn7)C6)C5)nc(OC[C@@]56CCCN5C[C@H](F)C6)nc4c3F)ccc(F)c2s1 [Compound A136, (6-(7-(2-amino-7-fluorobenzo-[d]thiazol-4-yl)-6-chloro-8-fluoro-2-(((2R,7aS)-2-fluoro-tetrahydro-1H-pyrrolizin-7a(5H)-yl)methoxy)quinazolin-4-yl)-2,6-diazaspiro[3.5]nonan-2-yl)(1H-1,2,4-triazol-1-yl)-methanone] | > 10

Reference: patent US20240368191A1, “HETEROCYCLIC COMPOUNDS AND USES THEREOF” (Kumquat Biosciences Inc., priority 2021, published 2024)
